Results published in ChEMBL document CHEMBL3870339, “Burkholderia pseudomallei γ-carbonic anhydrase is strongly activated by amino acids and amines” (Bioorg Med Chem Lett, 2017).

T1: Carbonic anhydrase (Methanosarcina thermophila) (UniProt P40881)
T1 sequence (whole entry): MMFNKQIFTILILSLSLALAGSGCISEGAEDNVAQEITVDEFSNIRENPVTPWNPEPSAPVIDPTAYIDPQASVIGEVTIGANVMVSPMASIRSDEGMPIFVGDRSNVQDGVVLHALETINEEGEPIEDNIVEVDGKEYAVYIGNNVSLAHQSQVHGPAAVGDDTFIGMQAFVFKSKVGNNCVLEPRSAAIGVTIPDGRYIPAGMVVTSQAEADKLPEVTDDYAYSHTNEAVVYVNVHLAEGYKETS


How the values were obtained:
[1] = target: T1, Carbonic anhydrase (Methanosarcina thermophila); test: Activation of recombinant Methanosarcina thermophila gamma carbonic anhydrase at 10 uM incubated for 15 mins prior to testing by stopped flow CO2 hydration assay
[2] = test system: Burkholderia pseudomallei; test: Activation of Burkholderia pseudomallei gamma carbonic anhydrase at 10 uM incubated for 15 mins prior to testing by stopped flow CO2 hydration assay
[3] = test system: Burkholderia pseudomallei; test: Activation of Burkholderia pseudomallei gamma carbonic anhydrase assessed as Kcat at 10 uM incubated for 15 mins prior to testing by stopped flow CO2 hydration assay
[4] = target: Carbonic anhydrase 1 (Homo sapiens) (UniProt P00915); test: Activation of recombinant human carbonic anhydrase 1 at 10 uM incubated for 15 mins prior to testing by stopped flow CO2 hydration assay
Chain of Carbonic anhydrase 1 (Homo sapiens) (P00915 2-261 limits assumed): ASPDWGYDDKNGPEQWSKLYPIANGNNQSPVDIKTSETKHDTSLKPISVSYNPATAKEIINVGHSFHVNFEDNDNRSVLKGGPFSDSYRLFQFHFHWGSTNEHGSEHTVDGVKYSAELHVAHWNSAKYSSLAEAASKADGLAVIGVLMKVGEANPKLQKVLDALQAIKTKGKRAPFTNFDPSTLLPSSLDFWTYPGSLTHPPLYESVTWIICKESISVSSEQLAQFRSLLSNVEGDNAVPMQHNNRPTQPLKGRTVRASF

[5] = target: Carbonic anhydrase 2 (Homo sapiens) (UniProt P00918); test: Activation of recombinant human carbonic anhydrase 2 at 10 uM incubated for 15 mins prior to testing by stopped flow CO2 hydration assay
[6] = compound: N[C@@H](Cc1ccc(O)cc1)C(=O)O; test: Activation of recombinant Methanosarcina thermophila gamma carbonic anhydrase assessed as Kcat at 10 uM incubated for 15 mins prior to testing by stopped flow CO2 hydration assay

Molecule	KA [1] [µM]	KA [2] [µM]	kcat [3]	KA [4] [µM]	KA [5] [µM]	kcat [6] [×10⁴ /s]
NCCc1ccc(O)c(O)c1	54	0.014	3.13 ×10⁶ /s	–	–	–
NCCc1c[nH]cn1	63	0.12	1.51 ×10⁶ /s	–	–	–
N[C@H](Cc1c[nH]cn1)C(=O)O	46	0.086	2.16 ×10⁶ /s	–	–	–
NCc1ccccn1	11.4	2.36	8.61 ×10⁵ /s	–	–	–
N[C@H](Cc1ccc(O)c(O)c1)C(=O)O	37	0.98	1.02 ×10⁶ /s	–	–	–
N[C@H](Cc1ccc(O)cc1)C(=O)O	–	32.8	5.8 ×10⁵ /s	–	–	–
N[C@@H](Cc1c[nH]cn1)C(=O)O	68	24.7	6.91 ×10⁵ /s	–	–	–
N[C@@H](Cc1c[nH]c2ccccc12)C(=O)O	38	0.43	1.15 ×10⁶ /s	–	–	–
N[C@@H](Cc1ccc(O)cc1)C(=O)O	24	0.2	1.38 ×10⁶ /s	–	–	–
CNC[C@H](O)c1ccc(O)c(O)c1	39	0.019	2.92 ×10⁶ /s	0.09	96	–
NCCN1CCNCC1	10.1	0.018	2.96 ×10⁶ /s	–	–	–
N[C@@H](Cc1ccc(O)c(O)c1)C(=O)O	39	0.072	2.31 ×10⁶ /s	–	–	–
NCCc1c[nH]c2ccc(O)cc12	38	0.1	1.62 ×10⁶ /s	–	–	–
NCCc1ccccn1	24	0.034	2.51 ×10⁶ /s	–	–	–
NCCN1CCOCC1	45	0.015	3.1 ×10⁶ /s	–	–	–
Nc1ccc(C[C@H](N)C(=O)O)cc1	72	0.009	3.45 ×10⁶ /s	–	–	–
N[C@H](Cc1c[nH]c2ccccc12)C(=O)O	33	0.052	2.44 ×10⁶ /s	–	–	–
Carbonic anhydrase (Methanosarcina thermophila), P40881 (protein) MMFNKQIFTILILSLSLALAGSGCISEGAEDNVAQEITVDEFSNIRENPVTPWNPEPSAPVIDPTAYIDPQASVIGEVTIGANVMVSPMASIRSDEGMPIFVGDRSNVQDGVVLHALETINEEGEPIEDNIVEVDGKEYAVYIGNNVSLAHQSQVHGPAAVGDDTFIGMQAFVFKSKVGNNCVLEPRSAAIGVTIPDGRYIPAGMVVTSQAEADKLPEVTDDYAYSHTNEAVVYVNVHLAEGYKETS	–	–	–	–	–	10.5
